Data published in patent publication US8748412B2, “Phenylalanine derivatives and their use as non-peptide GLP-1 receptor modulators” (Argusina Bioscience Inc., priority 2011, dated 2014).

Target: T1, human GLP1R (Homo sapiens, UniProt P43220)
T1 construct: expressed in transfected cells; host or cells: CHO cells (ATCC), transient transfection with pCMV-human GLP1R
Experiment: Human GLP-1 receptor transfected cell assay (MRE/CRE-luciferase reporter gene, agonist activity)
Type: cell-based
Conditions: 6 h; conc. 10 μM; percentage of the activity of the control; read-out: Agonist Activity
Method in brief: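 CHO cells transiently co-transfected with human GLP1R and MRE/CRE-driven luciferase reporter plasmids. Compound or GLP-1 (7-36 amide) standard dilution series added for 6 h at 37 °C, 5% CO2. Agonist activity read as Bright-Glo luciferase luminescence.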

T1 sequence (P43220 24-463): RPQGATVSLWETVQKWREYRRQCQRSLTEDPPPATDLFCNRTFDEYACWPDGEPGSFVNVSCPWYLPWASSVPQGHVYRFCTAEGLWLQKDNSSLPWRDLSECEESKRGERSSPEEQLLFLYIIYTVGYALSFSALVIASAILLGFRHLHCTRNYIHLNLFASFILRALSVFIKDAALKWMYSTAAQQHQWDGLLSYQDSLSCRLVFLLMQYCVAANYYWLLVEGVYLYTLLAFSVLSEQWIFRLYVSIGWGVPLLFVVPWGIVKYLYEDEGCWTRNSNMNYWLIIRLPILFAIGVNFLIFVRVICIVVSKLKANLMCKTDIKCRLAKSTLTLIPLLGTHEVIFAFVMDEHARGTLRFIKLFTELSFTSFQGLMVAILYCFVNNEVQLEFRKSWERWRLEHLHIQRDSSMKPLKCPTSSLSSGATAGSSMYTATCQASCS

`CC(C)(C)OC(=O)Nc1ccc(-c2nc(-c3ccc(CC(NC(=O)N4CCN(c5cccc(C(F)(F)F)c5)CC4)C(=O)O)cc3F)no2)cc1` (stereo not shown) [Compound 12F] and `CC(C)(C)OC(=O)Nc1ccc(-c2nc(-c3ccc(CC(NC(=O)N4CCN(c5ccc(Cl)cc5)CC4)C(=O)O)cc3F)no2)cc1` (stereo not shown) [Compound 13A] cannot be ordered by activation at 10 µM: > 60% for the first, > 60% for the second.

`CC(C)(C)OC(=O)Nc1ccc(-c2nc(-c3ccc(CC(NC(=O)Nc4cc(-c5ccc(F)cc5)n[nH]4)C(=O)O)cc3F)no2)cc1` (stereo not shown) [Compound 12I] and `CC(C)(C)OC(=O)Nc1ccc(-c2nc(-c3ccc(CC(NC(=O)Nc4ccc(-c5ccccc5F)cn4)C(=O)O)cc3F)no2)cc1` (stereo not shown) [Compound 13T] cannot be ordered by activation at 10 µM: > 60% for the first, > 60% for the second.

`CC(C)(C)OC(=O)Nc1ccc(-c2nc(-c3ccc(CC(NC(=O)Nc4ccc(-c5ccc(OC(F)(F)F)cc5)cn4)C(=O)O)cc3F)no2)cc1` (stereo not shown) [Compound 13N] and `CC(C)(C)OC(=O)Nc1ccc(-c2nc(-c3ccc(CC(NC(=O)Nc4ccc(-c5ccc(C(F)(F)F)cc5)cn4)C(=O)O)cc3F)no2)cc1` (stereo not shown) [Compound 13K] cannot be ordered by activation at 10 µM: > 60% for the first, > 60% for the second.

First: CN1CCN(c2ccc(C(=O)NC(Cc3ccc(-c4noc(-c5ccc(NC(=O)OC(C)(C)C)cc5)n4)c(F)c3)C(=O)O)o2)CC1 (stereo not shown) [Compound 11U]
Second: Cc1ccc(CN2CCN(C(=O)NC(Cc3ccc(-c4noc(-c5ccc(NC(=O)OC(C)(C)C)cc5)n4)c(F)c3)C(=O)O)CC2)cc1 (stereo not shown) [Compound 11Q]
The activation at 10 µM of the first is lower: 20 to 40% for the first, > 60% for the second.

`Cc1ccccc1-c1ccc(NC(=O)NC(Cc2ccc(-c3noc(-c4ccc(NC(=O)OC(C)(C)C)cc4)n3)c(F)c2)C(=O)O)nc1` (stereo not shown) [Compound 13U] and `CC(C)(C)OC(=O)Nc1ccc(-c2nc(-c3ccc(CC(NC(=O)Nc4ccc(-c5cccs5)cn4)C(=O)O)cc3F)no2)cc1` (stereo not shown) [Compound 13Z] cannot be ordered by activation at 10 µM: > 60% for the first, > 60% for the second.

Compared with `Cc1ccc(S(=O)(=O)NC(Cc2ccc(-c3noc(-c4ccc(NC(=O)OC(C)(C)C)cc4)n3)c(F)c2)C(=O)O)cc1Cl` (stereo not shown) [Compound 11F], `Cc1ccc(-c2cccc(C(=O)NC(Cc3ccc(-c4noc(-c5ccc(NC(=O)OC(C)(C)C)cc5)n4)c(F)c3)C(=O)O)c2)cc1` (stereo not shown) [Compound 11N] is higher in activation at 10 µM: 40 to 60% for the first, > 60% for the second.

`CC(C)(C)OC(=O)Nc1ccc(-c2nc(-c3ccc(CC(NC(=O)CN4CCN(C(=O)OC(C)(C)C)CC4)C(=O)O)cc3F)no2)cc1` (stereo not shown) [Compound 11T] showed an activation at 10 µM of 40 to 60%.

Same assay, conditions: 6 h; concentration 1 μM; read-out: Activity (agonist), percentage of the activity of the control

Compared with `Cc1ccc(-c2ccc(C(=O)NC(Cc3ccc(-c4noc(-c5ccc(NC(=O)OC(C)(C)C)cc5)n4)c(F)c3)C(=O)O)o2)cc1F` (stereo not shown) [Compound 1N], `Cc1ccc(-c2ccc(C(=O)N[C@H](Cc3ccc(C)c(-c4noc(-c5ccc(NC(=O)OC(C)(C)C)cc5)n4)c3)C(=O)O)o2)cc1` [Compound 6Z] is lower in activation at 1 µM: > 60% for the first, 40 to 60% for the second.

First: Cc1ccc(-c2ccc(NC(=O)NC(Cc3ccc(-c4noc(-c5ccc(NC(=O)OC(C)(C)C)cc5)n4)c(F)c3)C(=O)O)nc2)cc1 (stereo not shown) [Compound 4T]
Second: CC(C)(C)OC(=O)Nc1ccc(-c2nc(-c3ccc(CC(NC(=O)Cc4ccc(-c5ccc(C(F)(F)F)cc5)cc4)C(=O)O)cc3F)no2)cc1 (stereo not shown) [Compound 5I]
The activation at 1 µM of the first is lower: 40 to 60% for the first, > 60% for the second.

`CC(C)(C)OC(=O)Nc1ccc(-c2nc(-c3ccc(CC(NC(=O)c4cc(-c5ccc(Cl)cc5F)c[nH]4)C(=O)O)cc3F)no2)cc1` (stereo not shown) [Compound 3L] and `CC(C)(C)OC(=O)Nc1ccc(-c2nc(-c3ccc(C[C@@H](NS(=O)(=O)c4ccc(-c5ccccc5)cc4)C(=O)O)cc3F)no2)cc1` [Compound 3Q] fall in the same range of activation at 1 µM: 20 to 40% for the first, 20 to 40% for the second.

`Cc1cccc(CN2CCN(S(=O)(=O)NC(Cc3ccc(-c4noc(-c5ccc(NC(=O)OC(C)(C)C)cc5)n4)c(F)c3)C(=O)O)CC2)c1` (stereo not shown) [Compound 4C] was tested, and the activation at 1 µM was > 60%.

Same assay, conditions: 6 h; concentration 3 μM; read-out: Activity (agonist), percentage of the activity of the control

Compared with `Cc1cccnc1N1CCCN(C(=O)NC(Cc2ccc(-c3noc(-c4ccc(NC(=O)OC(C)(C)C)cc4)n3)c(F)c2)C(=O)O)CC1` (stereo not shown) [Compound 4R], `Cc1ccc(N2CCN(S(=O)(=O)NC(Cc3ccc(-c4noc(-c5ccc(NC(=O)OC(C)(C)C)cc5)n4)c(F)c3)C(=O)O)CC2)cc1` (stereo not shown) [Compound 3Z] is higher in activation at 3 µM: 20 to 40% for the first, > 60% for the second.

First: Cc1csc(-c2cccc(C(=O)N[C@H](Cc3ccc(-c4noc(-c5ccc(NC(=O)OC(C)(C)C)cc5)n4)c(F)c3)C(=O)O)c2)c1 [Compound 6U]
Second: Cc1ccc(-c2cccc(C(=O)N[C@H](Cc3ccc(-c4noc(-c5ccc(NC(=O)OC(C)(C)C)cc5)n4)c(F)c3)C(=O)O)c2)o1 [Compound 6I]
The activation at 3 µM of the first is higher: 40 to 60% for the first, 20 to 40% for the second.

Compared with `CC(C)(C)OC(=O)Nc1ccc(-c2nc(-c3ccc(CC(NC(=O)/C=C/c4ccc(Cl)c(C(F)(F)F)c4)C(=O)O)cc3F)no2)cc1` (stereo not shown) [Compound 2B], `CC(C)(C)OC(=O)Nc1ccc(-c2nc(-c3ccc(CC(NC(=O)c4ccc(N5CCOCC5)cc4)C(=O)O)cc3F)no2)cc1` (stereo not shown) [Compound 3V] is lower in activation at 3 µM: 40 to 60% for the first, 20 to 40% for the second.

First: Cc1ccc(-c2ccc(C(=O)N[C@H](Cc3ccc(F)c(-c4noc(-c5ccc(NC(=O)OC(C)(C)C)cc5)n4)c3)C(=O)O)o2)cc1 [Compound 1E]
Second: Cc1ccc(CN2CCN(S(=O)(=O)NC(Cc3ccc(-c4noc(-c5ccc(NC(=O)OC(C)(C)C)cc5)n4)c(F)c3)C(=O)O)CC2)cc1 (stereo not shown) [Compound 3X, 3-{4-[5-(4-tert-Butoxycarbonylamino-phenyl)-[1,2,4]oxadiazol-3-yl]-3-fluoro-phenyl}-2-[4-(4-methyl-benzyl)-piperazine-1-sulfonylamino]-propionic acid]
The activation at 3 µM of the first is lower: 40 to 60% for the first, > 60% for the second.

Same assay, conditions: 6 h; concentration 3.16 μM; read-out: Activity (agonist), percentage of the activity of the control

`CC(C)(C)OC(=O)Nc1ccc(-c2nc(-c3ccc(CC(NC(=O)c4c[nH]c(-c5ccc(Cl)cc5)n4)C(=O)O)cc3F)no2)cc1` (stereo not shown) [Compound 2S] and `Cc1ccc(-c2ccc(C(=O)NC(Cc3ccc(-c4noc(-c5ccc(NC(=O)OC(C)(C)C)cc5)n4)c(F)c3)C(=O)O)o2)cc1Cl` (stereo not shown) [Compound 1Q] cannot be ordered by activation at 3.16 µM: > 60% for the first, > 60% for the second.

`COc1ccc(-c2ccc(C(=O)NC(Cc3ccc(-c4noc(-c5ccc(NC(=O)OC(C)(C)C)cc5)n4)c(F)c3)C(=O)O)o2)cc1` (stereo not shown) [Compound 1J] and `Cc1ccc(-c2ccc(C(=O)N[C@@H](Cc3ccc(-c4noc(-c5ccc(NC(=O)OC(C)(C)C)cc5)n4)c(F)c3)C(=O)O)o2)cc1` [Compound 12E] cannot be ordered by activation at 3.16 µM: > 60% for the first, > 60% for the second.

`Cc1ccc(-n2cc(C(=O)NC(Cc3ccc(-c4noc(-c5ccc(NC(=O)OC(C)(C)C)cc5)n4)c(F)c3)C(=O)O)cn2)cc1F` (stereo not shown) [Compound 3B] and `CC(C)(C)OC(=O)Nc1ccc(-c2nc(-c3ccc(CC(NC(=O)c4cnn(-c5ccc(C(C)(C)C)cc5)c4)C(=O)O)cc3F)no2)cc1` (stereo not shown) [Compound 3A] cannot be ordered by activation at 3.16 µM: > 60% for the first, > 60% for the second.

`CN(C)c1ccc(-c2ccc(C(=O)NC(Cc3ccc(-c4noc(-c5ccc(NC(=O)OC(C)(C)C)cc5)n4)c(F)c3)C(=O)O)o2)cc1` (stereo not shown) [Compound 1I] and `CC(C)c1ccc(-c2cccc(C(=O)NC(Cc3ccc(-c4noc(-c5ccc(NC(=O)OC(C)(C)C)cc5)n4)c(F)c3)C(=O)O)c2)cc1` (stereo not shown) [Compound 2K] cannot be ordered by activation at 3.16 µM: > 60% for the first, > 60% for the second.

`CC(C)(C)OC(=O)Nc1ccc(-c2nc(-c3ccc(CC(NC(=O)Nc4cc(-c5ccccc5)n[nH]4)C(=O)O)cc3F)no2)cc1` (stereo not shown) [Compound 4G] was tested, and the activation at 3.16 µM was > 60%.

Same assay, conditions: 6 h; concentration 10 μM; read-out: Activity (agonist), percentage of the activity of the control

First: COc1ccc(Cn2cc(C(=O)NC(Cc3ccc(-c4noc(-c5ccc(NC(=O)OC(C)(C)C)cc5)n4)c(F)c3)C(=O)O)cn2)cc1 (stereo not shown) [Compound 2W]
Second: COc1ccc(C#CC(=O)N[C@H](Cc2ccc(-c3noc(-c4ccc(NC(=O)OC(C)(C)C)cc4)n3)c(F)c2)C(=O)O)cc1 [Compound 6M]
The activation at 10 µM of the first is higher: > 60% for the first, 20 to 40% for the second.

`CC(C)(C)OC(=O)Nc1ccc(-c2nc(-c3ccc(CC(NC(=O)N4CCCN(c5ccc(C#N)cc5)CC4)C(=O)O)cc3F)no2)cc1` (stereo not shown) [Compound 4P] and `CC(C)(C)OC(=O)Nc1ccc(-c2nc(-c3ccc(CC(NC(=O)c4cn(-c5ccc(C(F)(F)F)cc5)nn4)C(=O)O)cc3F)no2)cc1` (stereo not shown) [Compound 2A] cannot be ordered by activation at 10 µM: > 60% for the first, > 60% for the second.

Compared with `CC(C)(C)OC(=O)Nc1ccc(-c2nc(-c3ccc(CC(NC(=O)Nc4ccc(-c5ccc(F)cc5)cn4)C(=O)O)cc3F)no2)cc1` (stereo not shown) [Compound 4X], `Cc1ccc(-c2ccc(NC(=O)NC(Cc3ccc(-c4noc(-c5ccc(NC(=O)OC(C)(C)C)cc5)n4)c(F)c3)C(=O)O)nc2)cc1Cl` (stereo not shown) [Compound 4Z] is lower in activation at 10 µM: > 60% for the first, 40 to 60% for the second.

First: CC(C)(C)OC(=O)Nc1ccc(-c2nc(-c3ccc(CC(NC(=O)c4cccc(-c5ccc(Cl)cc5)c4)C(=O)O)cc3F)no2)cc1 (stereo not shown) [Compound 2G]
Second: CC(C)(C)OC(=O)Nc1ccc(-c2nc(-c3ccc(C[C@@H](NC(=O)c4cccc(-c5ccc(Cl)c(F)c5)c4)C(=O)O)cc3F)no2)cc1 [Compound 6F]
The activation at 10 µM of the first is lower: 40 to 60% for the first, > 60% for the second.

`CC(C)(C)OC(=O)Nc1ccc(-c2nc(-c3ccc(CC(NC(=O)c4cnc(-c5ccccc5)[nH]4)C(=O)O)cc3F)no2)cc1` (stereo not shown) [Compound 1Y] and `CC(C)(C)OC(=O)Nc1ccc(-c2nc(-c3ccc(CC(NC(=O)c4cc(-c5ccc(F)cc5)no4)C(=O)O)cc3F)no2)cc1` (stereo not shown) [Compound 2U] cannot be ordered by activation at 10 µM: > 60% for the first, > 60% for the second.

`Cc1cc(-c2ccc(C(=O)NC(Cc3ccc(-c4noc(-c5ccc(NC(=O)OC(C)(C)C)cc5)n4)c(F)c3)C(=O)O)o2)ccc1F` (stereo not shown) [Compound 1M] and `Cc1ccc(-c2ccc(C(=O)NC(Cc3ccc(-c4noc(-c5ccc(NC(=O)OC(C)(C)C)cc5)n4)c(F)c3)C(=O)O)o2)cc1` (stereo not shown) [Compound 1G, 3-{4-[5-(4-tert-Butoxycarbonylamino-phenyl)-[1,2,4]oxadiazol-3-yl]-3-fluoro-phenyl}-2-[(5-p-tolyl-furan-2-carbonyl)-amino]-propionic acid] cannot be ordered by activation at 10 µM: > 60% for the first, > 60% for the second.
